This is an account of results in US20250304596A1, “PYRAZINE DERIVATIVES AND USES THEREOF” (FOGHORN THERAPEUTICS INC., priority 2022, published 2025).

One experiment deals with T1, HiBit-BRM fusion protein (Homo sapiens, UniProt P51531).
T1 construct: expressed in transfected cells
In words: HiBiT-BRM cell-based degradation assay (Nano-Glo HiBiT Lytic Detection, 24 h). Particulars: stable HeLa cell line expressing HiBiT-BRM; for DC50: read-out: BRM HiBit Degradation IC50. In outline:
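Luminescence from LgBiT complementation after lysis measured HiBiT-BRM levels in stably expressing HeLa cells. Compounds were dosed at up to 30 μM final, in 3-fold 10-point dilutions, for 24 h. Percent degradation was scaled between DMSO wells and wells treated with 2 μM standard BRM/BRG1 degrader.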

In experiment [1] the target is T2, HiBit-BRG1 fusion protein (Homo sapiens, UniProt P51532).
T2 construct: expressed in transfected cells
T2 sequence (P51532 whole entry, the tested form may be a part): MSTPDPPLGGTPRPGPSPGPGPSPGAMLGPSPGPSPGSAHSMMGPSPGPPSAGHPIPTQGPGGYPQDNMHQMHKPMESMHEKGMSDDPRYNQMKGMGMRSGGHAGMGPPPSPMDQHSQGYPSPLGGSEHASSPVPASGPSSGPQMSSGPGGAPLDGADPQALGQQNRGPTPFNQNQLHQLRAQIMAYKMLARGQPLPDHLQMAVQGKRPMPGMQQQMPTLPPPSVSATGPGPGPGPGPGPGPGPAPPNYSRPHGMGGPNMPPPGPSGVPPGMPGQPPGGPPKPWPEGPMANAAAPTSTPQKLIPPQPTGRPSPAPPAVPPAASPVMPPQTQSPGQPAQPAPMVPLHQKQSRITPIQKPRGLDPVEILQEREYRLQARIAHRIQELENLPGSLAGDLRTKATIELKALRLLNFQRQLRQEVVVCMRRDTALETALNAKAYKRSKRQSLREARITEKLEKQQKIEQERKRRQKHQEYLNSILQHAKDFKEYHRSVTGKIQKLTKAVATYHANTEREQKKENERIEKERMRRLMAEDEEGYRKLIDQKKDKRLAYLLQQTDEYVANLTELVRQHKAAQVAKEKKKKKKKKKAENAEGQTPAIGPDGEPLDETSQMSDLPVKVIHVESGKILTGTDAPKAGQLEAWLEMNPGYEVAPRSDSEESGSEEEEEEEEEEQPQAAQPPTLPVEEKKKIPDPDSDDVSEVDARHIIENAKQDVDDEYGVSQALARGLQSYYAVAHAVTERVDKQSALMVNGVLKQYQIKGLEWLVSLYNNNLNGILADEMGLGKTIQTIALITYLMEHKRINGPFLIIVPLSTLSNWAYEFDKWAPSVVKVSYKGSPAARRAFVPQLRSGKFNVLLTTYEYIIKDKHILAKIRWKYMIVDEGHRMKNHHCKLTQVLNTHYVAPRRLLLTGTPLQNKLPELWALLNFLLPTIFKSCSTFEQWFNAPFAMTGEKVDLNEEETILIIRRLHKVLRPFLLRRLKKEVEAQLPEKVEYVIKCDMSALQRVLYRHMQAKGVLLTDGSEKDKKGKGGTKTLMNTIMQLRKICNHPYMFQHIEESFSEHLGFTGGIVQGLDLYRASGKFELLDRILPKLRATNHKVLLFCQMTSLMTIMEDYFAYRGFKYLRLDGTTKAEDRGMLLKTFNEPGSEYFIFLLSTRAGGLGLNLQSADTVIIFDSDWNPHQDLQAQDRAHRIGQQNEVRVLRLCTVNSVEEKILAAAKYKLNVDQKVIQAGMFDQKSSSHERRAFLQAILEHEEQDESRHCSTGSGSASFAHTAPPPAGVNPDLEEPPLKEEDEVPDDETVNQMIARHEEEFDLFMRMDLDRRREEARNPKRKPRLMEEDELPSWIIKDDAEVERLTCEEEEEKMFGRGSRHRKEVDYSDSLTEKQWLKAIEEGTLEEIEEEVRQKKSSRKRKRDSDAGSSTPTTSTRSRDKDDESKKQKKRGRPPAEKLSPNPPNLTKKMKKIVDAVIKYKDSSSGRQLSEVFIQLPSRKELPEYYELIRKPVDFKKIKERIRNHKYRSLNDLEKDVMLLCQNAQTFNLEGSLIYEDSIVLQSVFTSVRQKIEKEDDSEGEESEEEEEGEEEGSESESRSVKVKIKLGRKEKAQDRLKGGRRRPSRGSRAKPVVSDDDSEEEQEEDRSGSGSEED
In words: HiBiT-BRG1 cell-based degradation assay (Nano-Glo HiBiT Lytic Detection, 24 h). The settings on record: stable HeLa cell line expressing HiBit-BRG1 and LgBit; for Dmax: read-out: BRG1 HiBit Degradation Maximum (%); for DC50: read-out: BRMG1 HiBit Degradation IC50. In outline:
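Degradation read by lytic NanoBiT luminescence after 24 h compound exposure of a stable HiBit-BRG1/LgBit HeLa line. Ten-point, 3-fold series in duplicate, top final dose 30 μM; DMSO and 2 μM standard degrader define 0% and 100% degradation.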

Structures are written as SMILES.

T1 sequence (P51531 whole entry, the tested form may be a part): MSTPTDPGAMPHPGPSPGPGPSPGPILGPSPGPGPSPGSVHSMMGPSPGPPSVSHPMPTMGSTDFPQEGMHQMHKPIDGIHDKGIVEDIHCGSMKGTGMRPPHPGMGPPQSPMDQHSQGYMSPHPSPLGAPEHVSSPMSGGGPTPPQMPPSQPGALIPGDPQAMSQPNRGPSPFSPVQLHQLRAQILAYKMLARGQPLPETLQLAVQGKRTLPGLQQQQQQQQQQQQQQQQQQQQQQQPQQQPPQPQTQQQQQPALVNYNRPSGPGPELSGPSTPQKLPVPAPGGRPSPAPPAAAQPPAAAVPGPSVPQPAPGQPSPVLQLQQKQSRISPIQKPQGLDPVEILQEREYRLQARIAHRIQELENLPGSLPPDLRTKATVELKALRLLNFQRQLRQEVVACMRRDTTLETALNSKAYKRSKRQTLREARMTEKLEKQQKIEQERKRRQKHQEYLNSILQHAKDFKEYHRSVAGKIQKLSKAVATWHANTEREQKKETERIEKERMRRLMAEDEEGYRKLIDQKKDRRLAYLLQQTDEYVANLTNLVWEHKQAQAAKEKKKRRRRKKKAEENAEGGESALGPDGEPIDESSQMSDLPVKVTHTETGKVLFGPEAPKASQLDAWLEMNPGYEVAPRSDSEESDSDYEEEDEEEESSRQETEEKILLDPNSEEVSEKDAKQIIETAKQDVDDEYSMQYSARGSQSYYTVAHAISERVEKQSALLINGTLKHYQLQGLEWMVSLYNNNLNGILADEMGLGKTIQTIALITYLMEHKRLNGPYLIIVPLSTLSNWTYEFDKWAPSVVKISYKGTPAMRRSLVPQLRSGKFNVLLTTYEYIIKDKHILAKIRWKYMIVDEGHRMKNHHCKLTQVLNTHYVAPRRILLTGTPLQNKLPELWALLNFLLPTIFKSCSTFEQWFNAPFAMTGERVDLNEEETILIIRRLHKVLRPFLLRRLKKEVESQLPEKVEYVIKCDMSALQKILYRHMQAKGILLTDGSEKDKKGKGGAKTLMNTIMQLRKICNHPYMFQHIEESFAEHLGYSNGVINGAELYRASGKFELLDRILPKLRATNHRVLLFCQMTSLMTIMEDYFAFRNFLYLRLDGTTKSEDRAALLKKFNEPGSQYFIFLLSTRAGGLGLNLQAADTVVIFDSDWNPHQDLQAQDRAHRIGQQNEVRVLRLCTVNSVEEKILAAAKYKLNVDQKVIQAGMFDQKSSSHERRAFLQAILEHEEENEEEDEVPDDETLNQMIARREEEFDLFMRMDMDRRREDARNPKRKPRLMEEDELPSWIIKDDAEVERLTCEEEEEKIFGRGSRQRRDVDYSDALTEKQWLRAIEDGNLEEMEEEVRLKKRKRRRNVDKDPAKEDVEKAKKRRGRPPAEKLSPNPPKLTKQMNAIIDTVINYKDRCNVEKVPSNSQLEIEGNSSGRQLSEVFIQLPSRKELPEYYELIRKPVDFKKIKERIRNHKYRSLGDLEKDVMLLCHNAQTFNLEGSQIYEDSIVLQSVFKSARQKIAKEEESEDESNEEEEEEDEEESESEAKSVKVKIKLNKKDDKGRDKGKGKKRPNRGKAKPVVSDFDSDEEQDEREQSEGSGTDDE

Consider `Cc1ncsc1-c1ccc([C@H](C)NC(=O)[C@@H]2C[C@@H](O)CN2C(=O)[C@@H](c2cc(N3CC[C@H](c4cc5nnc(-c6ccccc6O)cc5s4)C3)no2)C(C)C)cc1` [Compound 73, (2S,4R)-4-hydroxy-1-((R)-2-(3-((S)-3-(3-(2-hydroxyphenyl)thieno[3,2-c]pyridazin-6-yl)pyrrolidin-1-yl)isoxazol-5-yl)-3-methylbutanoyl)-N-((S)-1-(4-(4-methylthiazol-5-yl)phenyl)ethyl)pyrrolidine-2-carboxamide], for which, at HiBit-BRM fusion protein, the “BRM HiBit Degradation Maximum (%)” value is “A (“A” indicates maximum degradation ≥75%)” and the DC50 is below 10 nM. In addition, the Dmax in experiment [1] was below 50%.

As to `Cc1ncsc1-c1ccc([C@H](C)NC(=O)[C@@H]2C[C@@H](O)CN2C(=O)[C@@H](c2cc(N3CC[C@@H](c4sc5nnc(-c6ccccc6O)cc5c4C)C3)no2)C(C)C)cc1` [Compound 74, (2S,4R)-4-hydroxy-1-((R)-2-(3-((R)-3-(3-(2-hydroxyphenyl)-5-methylthieno[2,3-c]pyridazin-6-yl)pyrrolidin-1-yl)isoxazol-5-yl)-3-methylbutanoyl)-N-((S)-1-(4-(4-methylthiazol-5-yl)phenyl)ethyl)pyrrolidine-2-carboxamide], at HiBit-BRM fusion protein, the “BRM HiBit Degradation Maximum (%)” value is “A (“A” indicates maximum degradation ≥75%)” and the DC50 is below 10 nM. Besides, in experiment [1], the Dmax is above 50% and the DC50 is above 10 nM.

For `Cc1ncsc1-c1ccc([C@H](C)NC(=O)[C@@H]2C[C@@H](O)CN2C(=O)[C@@H](c2cc(-c3cnc(N4CC[C@@H](c5sc6nnc(-c7ccccc7O)cc6c5C5CC5)C4)nc3)no2)C(C)C)cc1` [Compound 75, (2S,4R)-1-((R)-2-(3-(2-((R)-3-(5-cyclopropyl-3-(2-hydroxyphenyl)thieno [2,3-c]pyridazin-6-yl)pyrrolidin-1-yl)pyrimidin-5-yl)isoxazol-5-yl)-3-methylbutanoyl)-4-hydroxy-N-((S)-1-(4-(4-methylthiazol-5-yl)phenyl)ethyl)pyrrolidine-2-carboxamide], at HiBit-BRM fusion protein, the “BRM HiBit Degradation Maximum (%)” value was “B (“B” indicates maximum degradation ≥50%)” and the DC50 was above 10 nM. For the same compound, the Dmax in experiment [1] is below 50%.

With `Cc1ncsc1-c1ccc([C@H](C)NC(=O)[C@@H]2C[C@@H](O)CN2C(=O)[C@@H](c2cc(-c3cnc(N4CC[C@H](c5sc6nnc(-c7ccccc7O)cc6c5C5CC5)C4)nc3)no2)C(C)C)cc1` [Compound 76, (2S,4R)-1-((R)-2-(3-(2-((S)-3-(5-cyclopropyl-3-(2-hydroxyphenyl)thieno[2,3-c]pyridazin-6-yl)pyrrolidin-1-yl)pyrimidin-5-yl)isoxazol-5-yl)-3-methylbutanoyl)-4-hydroxy-N-((S)-1-(4-(4-methylthiazol-5-yl)phenyl)ethyl)pyrrolidine-2-carboxamide], on HiBit-BRM fusion protein, the “BRM HiBit Degradation Maximum (%)” value is given as “A (“A” indicates maximum degradation ≥75%)” and the DC50 was below 10 nM. Further, the Dmax in experiment [1] was below 50%.

For the compound `Cc1ncsc1-c1ccc([C@H](C)NC(=O)[C@@H]2C[C@@H](O)CN2C(=O)[C@@H](c2cc(N3CCC4(CC[C@@H](c5sc6nnc(-c7ccccc7O)cc6c5C)C4)CC3)no2)C(C)C)cc1` [Compound 77, (2S,4R)-4-hydroxy-1-((R)-2-(3-((R)-2-(3-(2-hydroxyphenyl)-5-methylthieno[2,3-c]pyridazin-6-yl)-8-azaspiro[4.5]decan-8-yl)isoxazol-5-yl)-3-methylbutanoyl)-N-((S)-1-(4-(4-methylthiazol-5-yl)phenyl)ethyl)pyrrolidine-2-carboxamide], on HiBit-BRM fusion protein, the “BRM HiBit Degradation Maximum (%)” value is on record as “A (“A” indicates maximum degradation ≥75%)” and the DC50 was below 10 nM. In experiment [1], the Dmax is above 50% and the DC50 was above 100 nM.
